Measurements: the supplement of paper PMC10307832

Legend:
Assay in all cases: relative viability (nuclei count vs DMSO), 5 days (fraction); higher = more cells survive
Daporinad + Navitoclax = compound: O=C(/C=C/c1cccnc1)NCCCCC1CCN(C(=O)c2ccccc2)CC1 [Daporinad] + CC1(C)CCC(c2ccc(Cl)cc2)=C(CN2CCN(c3ccc(C(=O)NS(=O)(=O)c4ccc(N[C@H](CCN5CCOCC5)CSc5ccccc5)c(S(=O)(=O)C(F)(F)F)c4)cc3)CC2)C1 [Navitoclax] (partner 0.5 µM)
Outline: (§1)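 Lung cancer cell lines in 1536-well plates got either a single drug or a fixed anchor-drug dose together with five library-drug doses (not always all listed) in √10 steps, by pin tool, on the day after seeding. Nuclei were counted after 5 days, and relative viability is the treated-to-vehicle ratio of nuclei counts. Values are medians of duplicate plates.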

R406 + Foretinib = compound: COc1cc(Nc2ncc(F)c(Nc3ccc4c(n3)NC(=O)C(C)(C)O4)n2)cc(OC)c1OC [R406] + COc1cc2c(Oc3ccc(NC(=O)C4(C(=O)Nc5ccc(F)cc5)CC4)cc3F)ccnc2cc1OCCCN1CCOCC1 [Foretinib] (partner 0.25 µM)
Outline: as §1

R406 + Vorinostat = compound: COc1cc(Nc2ncc(F)c(Nc3ccc4c(n3)NC(=O)C(C)(C)O4)n2)cc(OC)c1OC [R406] + O=C(CCCCCCC(=O)Nc1ccccc1)NO [Vorinostat] (partner 1 µM)
Outline: as §1

Daporinad + Trametinib = compound: O=C(/C=C/c1cccnc1)NCCCCC1CCN(C(=O)c2ccccc2)CC1 [Daporinad] + CC(=O)Nc1cccc(-n2c(=O)n(C3CC3)c(=O)c3c(Nc4ccc(I)cc4F)n(C)c(=O)c(C)c32)c1 [Trametinib] (partner 0.02 µM)
Outline: as §1

Cell Line	relative viability (Daporinad + Navitoclax; first compound 0.0005 µM)	relative viability (Daporinad + Navitoclax; first compound 0.001581 µM)	relative viability (Daporinad + Navitoclax; first compound 0.005 µM)	relative viability (Daporinad + Navitoclax; first compound 0.01581 µM)	relative viability (R406 + Foretinib; first compound 0.08 µM)	relative viability (R406 + Foretinib; first compound 0.253 µM)	relative viability (R406 + Foretinib; first compound 0.8 µM)	relative viability (R406 + Foretinib; first compound 2.53 µM)	relative viability (R406 + Foretinib; first compound 8 µM)	relative viability (R406 + Vorinostat; first compound 0.08 µM)	relative viability (R406 + Vorinostat; first compound 0.253 µM)	relative viability (R406 + Vorinostat; first compound 0.8 µM)	relative viability (R406 + Vorinostat; first compound 2.53 µM)	relative viability (R406 + Vorinostat; first compound 8 µM)	relative viability (Daporinad + Trametinib; first compound 0.0005 µM)	relative viability (Daporinad + Trametinib; first compound 0.001581 µM)	relative viability (Daporinad + Trametinib; first compound 0.005 µM)	relative viability (Daporinad + Trametinib; first compound 0.01581 µM)
201T	1.23	1.19	1.21	1.2	1.13	1.32	1.21	0.829	0.708	0.893	1.02	1.02	0.795	0.749	0.713	0.731	0.705	0.735
A549	1.3	1.21	1.12	0.814	0.961	1	0.94	0.959	0.396									
A-427	0.964	1.04	0.722	0.691	1.09	1.35	1.24	0.983	0.814	0.856	0.928	0.852	0.939	0.621	0.695	0.825	0.778	0.708
ABC-1					1.08	1.03	1.03	1.15	0.781	1.33	1.37	1.35	1.11	0.765				
BEN	0.074	0.147	0.0521	0.083	0.884	0.609	0.691	0.879	0.578	0.606	0.601	0.607	0.555	0.542	1.01	0.996	1.06	1.18
CAL-12T	1.33	0.925	0.518	0.172	1.03	1.23	1.22	1.09	0.812	0.785	0.723	0.758	0.762	0.509	0.275	0.378	0.37	0.229
COR-L23	1.01	0.966	0.916	0.186	0.925	1.18	1.12	0.931	0.665	0.483	0.433	0.424	0.279	0.244	0.577	0.662	0.737	0.302
COR-L 105	0.777	0.883	0.722	0.618	0.898	1.4	1.34	1.1	0.504	0.743	0.893	0.824	0.651	0.514	0.445	0.41	0.496	0.469
Calu-6	0.853	0.681	0.527	0.196	0.842	0.927	0.924	0.687	0.553									
ChaGo-K-1	1.02	0.58	0.845	0.492	0.926	1.07	1.09	0.771	0.531	0.755	0.839	0.822	0.609	0.637	0.86	0.914	0.767	0.428
EBC-1	0.347	0.4	0.405	0.389	0.102	0.107	0.0997	0.118	0.122									
EKVX	0.808	0.914	0.97	1.11	0.79	1	0.821	0.567	0.609	0.78	0.567	0.757	0.6	0.653	0.288	0.329	0.43	0.372
EMC-BAC-2	1.16	1.16	1.01	0.318	0.98	1.05	1.11	0.385	0.579	0.405	0.785	0.53	0.411	0.145	0.868	0.935	0.8	0.433
EPLC-272H	1.22	1.47	1.28	1.38	0.425	0.617	0.792	0.304	0.126	0.29	0.444	0.511	0.286	0.168	0.295	0.317	0.284	0.31
H3255	0.483	0.429	0.584	0.695	0.868		0.872	0.878	0.673	0.767	0.816	0.996	0.72	0.638	0.557	0.637	0.645	0.71
HARA	1.15	1.08	1.14	0.275	0.867	1.04	1.05	0.751	0.218	0.66	0.606	0.515	0.489	0.515	0.833	0.761	0.627	0.403
HCC-15	0.661	0.776	0.716	0.764	1.07	1.12	1.19	1.01	0.643	0.919	0.921	0.867	0.842	0.81	0.339	0.429	0.39	0.418
HCC-44	1.02	0.99	1.02	0.897						1.07	1.1	1.1	1.04	1.22	1.02	1.15	1.08	1.07
HCC-78	0.644	0.935	0.842	1.05	0.562	0.602	0.642	0.57	0.56	0.452	0.426	0.412	0.29	0.331	0.68	0.821	0.71	1.1

Cell Line	relative viability (Daporinad + Navitoclax; first compound 0.0005 µM)	relative viability (Daporinad + Navitoclax; first compound 0.001581 µM)	relative viability (Daporinad + Navitoclax; first compound 0.005 µM)	relative viability (Daporinad + Navitoclax; first compound 0.01581 µM)	relative viability (R406 + Foretinib; first compound 0.08 µM)	relative viability (R406 + Foretinib; first compound 0.253 µM)	relative viability (R406 + Foretinib; first compound 0.8 µM)	relative viability (R406 + Foretinib; first compound 2.53 µM)	relative viability (R406 + Foretinib; first compound 8 µM)	relative viability (R406 + Vorinostat; first compound 0.08 µM)	relative viability (R406 + Vorinostat; first compound 0.253 µM)	relative viability (R406 + Vorinostat; first compound 0.8 µM)	relative viability (R406 + Vorinostat; first compound 2.53 µM)	relative viability (R406 + Vorinostat; first compound 8 µM)	relative viability (Daporinad + Trametinib; first compound 0.0005 µM)	relative viability (Daporinad + Trametinib; first compound 0.001581 µM)	relative viability (Daporinad + Trametinib; first compound 0.005 µM)	relative viability (Daporinad + Trametinib; first compound 0.01581 µM)
HCC-366	0.993	1.02	1.17	1.06	0.957	0.933	0.956	0.847	0.137	0.264	0.482	0.332	0.137	0.077	0.332		0.376	0.409
HCC-827	1.12	1.03	1.05	1.08	0.991	1.08	1.05	0.81	0.157	0.791	0.853	0.892	0.788	0.817	0.498	0.508	0.553	0.552
HOP-62	1.06	0.975	0.943	0.404	1.03	1.28	0.967	1.26	0.808	0.66	0.803	0.836	0.464	0.463	0.453	0.427	0.484	0.422
IA-LM	0.733	0.809	0.772	0.599	1.23	1.43	0.958	1.36	1.02	0.984	0.756	1.04	0.99	1.05				
LC-2-ad	0.43	0.544	0.553	0.393	0.899	1.03	0.903	0.7	0.547	0.677	0.748	0.744	0.336	0.201	0.907	0.983	0.863	0.914
LCLC-103H					0.758	0.734	0.879	0.529	0.146	0.729	0.764	0.834	0.779	0.566	0.738	0.69	0.701	0.757
NCI-H358					0.75	0.795	0.886	0.335	0.156	0.766	0.726	0.722	0.314	0.273	0.135	0.152	0.15	0.18
NCI-H522										0.937	1.04	1.01	0.838	0.812	0.906	0.753	0.67	0.835
NCI-H650					0.968	1.17	1.03	0.914	0.864	0.494	0.442	0.495	0.439	0.331	1.05	1.14	1.01	1.27
NCI-H661					0.895	1.04	0.988	1	0.76	0.813	0.772	0.737	0.796	0.724	0.665	0.746	0.52	0.376
NCI-H1299	1.06	1.07	1.11	1.07	1.01	1.14	1.07	1.2	1.02									
NCI-H1563					0.777	1	0.939	0.82	0.624									
NCI-H1623					0.931	0.952	0.962	0.806	0.849									
NCI-H1648										0.457	0.427	0.562	0.468	0.643	0.469	0.418	0.417	0.447
NCI-H1703	1.16	1.2	0.816	0.335	0.346	0.327	0.323	0.228	0.218									
NCI-H1792	0.702	0.722	0.534	0.621											0.412	0.471	0.421	0.453
NCI-H2342					0.889	1.21	1.22	0.863	0.88	0.694	0.84	0.699	0.752	0.74	1.04	0.82	0.782	0.844
SW 900					0.769	0.779	0.915	0.754	0.519	0.475	0.844	0.577	0.134	0.15	0.668		1.03	0.663
